Laboratory results as given in patent US20090156632A1, “DOSAGE REGIMEN FOR PRASUGREL” (priority 2005, published 2009).

Columns and labels:
[1] = tested on: platelet aggregation to 20 μM ADP; assay: Clinical Example 2: IPA to 20 μM ADP by turbidometric aggregometry and non-responder rates in aspirin-treated patients; type: in vivo, human; details: for pre-dose IPA at day 28 / IPA at 4 h after LD: 20 μM ADP
Protocol: This study analyzed IPA and non-responder rates with prasugrel (Pras), a novel P2Y12 antagonist, vs. clopidogrel (Clop) in aspirin-treated patients. • Methods: After 7-days on aspirin 325 mg, 101 subjects were randomized to 1 of 5 dosing regimens, a loading dose (LD) on day 1 and a daily maintenance dose (MD) on days 2-28: prasugrel—40 mg LD/5 mg MD, 40 mg LD/7.5 mg MD, 60 mg LD/10 mg MD, or 60 mg LD/15 mg MD or clopidogrel—300 mg LD/75 mg MD). IPA to 20 μM ADP was measured by turbidometric aggregometry.

[2] = tested on: platelet aggregation induced by 20 μM ADP; assay: Clinical Example 1: multiple-dose study, platelet aggregation induced by 20 μM ADP measured turbidometrically; type: in vivo, human; details: for IPA: 24 hours after 10th dose, mean ± SE, n = 6
Protocol: (§1) A Comparative Study of the Effects of Prasugrel and Clopidogrel on Platelet Function in Healthy Subjects • Background: Antiplatelet agents such as aspirin and clopidogrel are effective in the secondary prevention of atherothrombotic events. […] This study examined the tolerability, safety, and IPA profile of prasugrel compared with clopidogrel. • Method: A double-blind, placebo-controlled, multiple-dose study of healthy male volunteers randomized into 5 groups (n=6): prasugrel (5, 10 and 20 mg), clopidogrel (75 mg), and placebo. Study medications were taken once daily for 10 days.

[3] = tested on: ADP (5 μM and 20 μM)-induced platelet aggregation; assay: Clinical Example 3: responders by ADP-induced platelet aggregation (turbidometric aggregometry) after loading dose; type: in vivo, human; details: for responders: healthy volunteers
Description: Clopidogrel Responders and Nonresponders: A Comparison with Prasugrel a Novel Thienopyridine P2Y12 Receptor Antagonist • Background: Lower levels of inhibition of platelet aggregation (IPA) with clopidogrel have been associated with a higher risk of adverse events after percutaneous coronary intervention (PCI). Thresholds of IPA, objectively defined with Bayesian classification theory, were used to identify responders and non-responders to clopidogrel and prasugrel, a novel thienopyridine P2Y12 receptor antagonist. • Methods: An integrated database of ADP (5 μM and 20 μM)-induced platelet aggregation as measured by turbidometric aggregometry was analyzed from three single-center cross-over clinical pharmacology studies. Subjects (N=112, aged 18-65 years) were healthy volunteers with a baseline maximum platelet aggregation (MPA) of >70% to 20 μM ADP and were randomized to either a clopidogrel 300 mg loading dose (LD) or a prasugrel 60 mg LD. The change in MPA (ΔMPA) from baseline and IPA were evaluated at both 4-5 and 24 hours after the LD. A responder was defined as an individual achieving either a ΔMPA≧15% or an IPA≧20% in response to 20 μM ADP.

[4] = tested on: platelet aggregation; assay: Preclinical studies of prasugrel base versus clopidogrel; details: preclinical studies involving the base of prasugrel
[5] = Clinical Example 1: tolerability, safety and bleeding time; type: in vivo, human; details: healthy subjects; multiple oral dosing, 5 to 20 mg for 10 days
Protocol: as §1

[6] = 5 μM ADP, clopidogrel 300 mg LD, N = 112
[7] = 20 μM ADP, clopidogrel 300 mg LD, N = 112
[8] = 5 μM ADP, prasugrel 60 mg LD, N = 91
[9] = 20 μM ADP, prasugrel 60 mg LD, N = 91

COC(=O)[C@H](c1ccccc1Cl)N1CCc2sccc2C1 [clopidogrel, reference compound]
pre-dose IPA at day 28 ([1]; clopidogrel 75 mg MD, aspirin-treated patients): 31.2% | non-responder rate (not achieving ≧20% IPA) ([1]; clopidogrel 75 mg MD, pre-dose during MD): 46% | non-responder rate (not achieving ≧20% IPA) ([1]; clopidogrel 300 mg LD, 4 h after LD): 52% | IPA at 4 h after LD ([1]; clopidogrel 300 mg LD, aspirin-treated patients): 30.0% | subjects demonstrating minimal IPA at Day 10 ([2]; clopidogrel 75 mg once daily for 10 days): 2 of 6 | IPA ([2]; clopidogrel 75 mg once daily for 10 days, 20 μM ADP): 15.7% | IPA ([2]; clopidogrel 75 mg once daily for 10 days, 20 μM ADP, listed as Clopidogrel): 15.7 ± 6.8% | Number of Responders, IPA ≧ 25% [3, 6]: 87 | Number of Responders, ΔMPA ≧ 20% [3, 6]: 82 | Percentage of Responders, IPA ≧ 25% [3, 6]: 78% | Percentage of Responders, ΔMPA ≧ 20% [3, 6]: 73% | responders ([3]; 5 μM ADP, clopidogrel 300 mg LD): approximately 75% | Number of Responders, IPA ≧ 20% [3, 7]: 64 | Number of Responders, ΔMPA ≧ 15% [3, 7]: 68 | Percentage of Responders, IPA ≧ 20% [3, 7]: 57% | Percentage of Responders, ΔMPA ≧ 15% [3, 7]: 61% | responders ([3]; 20 μM ADP, clopidogrel 300 mg LD): 60%

CC(=O)Oc1cc2c(s1)CCN(C(C(=O)C1CC1)c1ccccc1F)C2 (stereo not drawn) [prasugrel, 2-Acetoxy-5-(α-cyclopropylcarbonyl-2-fluorobenzyl)-4,5,6,7-tetrahydrothieno[3,2-c]pyridine]
pre-dose IPA at day 28 ([1]; prasugrel 10 mg MD, aspirin-treated patients): 57.5% | pre-dose IPA at day 28 ([1]; prasugrel 15 mg MD, aspirin-treated patients): 65.8% | IPA at 4 h after LD ([1]; prasugrel 40 mg LD, aspirin-treated patients): 60.6% | IPA at 4 h after LD ([1]; prasugrel 60 mg LD, aspirin-treated patients): 68.4% | rate of non-responders compared to standard clopidogrel LD and MD ([1]; prasugrel LD of 40 or 60 mg and MD of 10 or 15 mg, aspirin-treated patients): lower rate of non-responders | IPA ([2]; prasugrel 5 mg once daily for 10 days, 20 μM ADP): 39.2 ± 4.4% | IPA ([2]; prasugrel 10 mg once daily for 10 days, 20 μM ADP): 58.2 ± 4.9% | IPA ([2]; prasugrel 20 mg once daily for 10 days, 20 μM ADP): 68.3 ± 5.4% | IPA, range over doses ([2]; prasugrel 5, 10 and 20 mg once daily for 10 days, 24 hours after the final dose, 20 μM ADP): 39.2%-68.3 | Number of Responders, IPA ≧ 25% [3, 8]: 91 | Number of Responders, ΔMPA ≧ 20% [3, 8]: 91 | Percentage of Responders, IPA ≧ 25% [3, 8]: 100% | Percentage of Responders, ΔMPA ≧ 20% [3, 8]: 100% | responders ([3]; 5 μM ADP, prasugrel 60 mg LD): 100% | Number of Responders, IPA ≧ 20% [3, 9]: 91 | Number of Responders, ΔMPA ≧ 15% [3, 9]: 91 | Percentage of Responders, IPA ≧ 20% [3, 9]: 100% | Percentage of Responders, ΔMPA ≧ 15% [3, 9]: 100% | responders ([3]; 20 μM ADP, prasugrel 60 mg LD): 100% | potency relative to clopidogrel [4]: at least 10 times | tolerability [5]: well tolerated
